The source made the active and inactive calls. The rule behind the calls is not given here.
Biological target: Ephrin type-B receptor 4 (Homo sapiens) (UniProt P54760)
Test: EphB4-ephrin-B2 interaction antagonists, dose response, biochemical, TNYL-RAW peptide displacement (AID 835)

Chain of Ephrin type-B receptor 4 (Homo sapiens) (P54760 whole entry, looked up): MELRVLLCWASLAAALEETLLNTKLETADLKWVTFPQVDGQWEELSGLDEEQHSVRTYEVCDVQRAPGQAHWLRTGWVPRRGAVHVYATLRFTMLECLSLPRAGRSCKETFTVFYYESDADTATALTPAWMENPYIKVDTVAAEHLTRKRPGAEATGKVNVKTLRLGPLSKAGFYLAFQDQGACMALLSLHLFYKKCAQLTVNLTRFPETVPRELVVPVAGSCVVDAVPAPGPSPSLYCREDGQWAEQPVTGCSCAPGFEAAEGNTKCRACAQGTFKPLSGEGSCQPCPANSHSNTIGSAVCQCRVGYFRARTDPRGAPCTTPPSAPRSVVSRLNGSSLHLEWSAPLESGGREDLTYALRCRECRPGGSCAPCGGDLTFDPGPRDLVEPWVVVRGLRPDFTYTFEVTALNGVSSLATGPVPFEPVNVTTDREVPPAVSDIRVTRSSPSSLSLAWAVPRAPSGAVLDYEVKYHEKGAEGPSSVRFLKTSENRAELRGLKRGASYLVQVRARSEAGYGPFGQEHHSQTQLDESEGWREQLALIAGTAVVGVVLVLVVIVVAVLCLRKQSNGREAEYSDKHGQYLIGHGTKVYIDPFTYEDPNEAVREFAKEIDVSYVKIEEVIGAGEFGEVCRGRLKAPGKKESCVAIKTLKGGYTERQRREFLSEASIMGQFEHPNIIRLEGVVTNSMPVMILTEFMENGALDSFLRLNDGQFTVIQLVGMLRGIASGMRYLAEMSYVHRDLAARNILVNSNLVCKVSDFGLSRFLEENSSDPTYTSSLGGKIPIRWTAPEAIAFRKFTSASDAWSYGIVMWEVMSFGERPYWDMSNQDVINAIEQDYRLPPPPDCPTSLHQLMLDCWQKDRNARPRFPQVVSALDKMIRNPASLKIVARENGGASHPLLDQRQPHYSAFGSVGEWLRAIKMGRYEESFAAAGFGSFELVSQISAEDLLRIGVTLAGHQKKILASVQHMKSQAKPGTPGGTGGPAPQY

Structure (SMILES)	IC50
CC1=Nc2ccccc2/C1=C\c1nc(-c2ccc(C(F)(F)F)cc2)oc1O	> 79.4 µM (inactive)
CCOc1cccc(N2C(=O)CC(=O)NC2=O)c1	> 79.4 µM (inactive)
CC1=Nc2ccccc2/C1=C\c1nc(-c2ccc(F)cc2)oc1O	> 79.4 µM (inactive)
CCCc1[nH]nc2c1C(c1ccc(OC)c(Cn3nnc4ccccc43)c1)C(C#N)=C(N)O2 (centres undefined)	> 79.4 µM (inactive)
CCOC(=O)C1=C(c2ccccc2)N2CCS(=O)(=O)N=C2S1	> 79.4 µM (inactive)
CCn1c(O)c(C=Nc2ccc(N3CCOCC3)cc2)c(=O)n(CC)c1=S	> 79.4 µM (inactive)
Oc1[nH]c2ccccc2c1N=Nc1nc2ccccc2s1	> 79.4 µM (inactive)
COC(=O)CSC1=C(C#N)C(c2ccc(C)cc2)C2=C(CCCC2=O)N1 (centres undefined)	> 79.4 µM (inactive)
Clc1cccc(/C=N/Nc2ncnc3ccccc23)c1	> 79.4 µM (inactive)
